Results taken from patent publication US9750254B2, “Agricultural or horticultural chemical, method of controlling plant diseases, and product for controlling plant diseases” (Kureha Corporation, priority 2013, dated 2017).

Assays:
Type in all cases: cell-based
Gaeumannomyces graminis = test: Test Example 2: in vitro antimicrobial activity test, colony diameter on PDA plate with chemicals, 20° C., three days
Method: On the other hand, Glomerella cingulata was punched out from the vicinity of a Glomerella cingulata colony that was cultured in advance on another plate culture medium free of the chemicals using a cork borer having a diameter of 4 mm, and inoculated on the PDA plate culture medium in which the chemicals were mixed. After culturing at 25° C. for seven days, the diameter of the grown colony was measured. […] Additionally, in the above formula, R represents a fungal growth inhibition rate (%), dc represents the diameter of a colony on an untreated plate, and dt represents the diameter of a colony on a chemical-treated plate. […] Meanwhile, Gaeumannomyces graminis was punched out from the periphery of a colony of Gaeumannomyces graminis using a cork borer having a diameter of 4 mm, and inoculated onto the PDA agar plates in which the chemical(s) was (were) mixed.

Glomerella cingulata = test: Test Example 1: in vitro antimicrobial activity test, colony diameter on PDA plate with chemicals, 25° C., seven days
Method: (§1) On the other hand, Glomerella cingulata was punched out from the vicinity of a Glomerella cingulata colony that was cultured in advance on another plate culture medium free of the chemicals using a cork borer having a diameter of 4 mm, and inoculated on the PDA plate culture medium in which the chemicals were mixed. After culturing at 25° C. for seven days, the diameter of the grown colony was measured. […] Additionally, in the above formula, R represents a fungal growth inhibition rate (%), dc represents the diameter of a colony on an untreated plate, and dt represents the diameter of a colony on a chemical-treated plate.

Septoria tritici = test: Test Example 4: in vitro antimicrobial activity test, colony diameter on PDA plate with chemicals, 25° C., 14 days
Method: as §1
(§2) Inhibition rate when used as a mixture (theoretical value)=α+(100−α)×β)/100 Note that, in the formula above, α and β respectively represent the inhibition rates of the compounds during single use of the compounds.
In this test example, the antimicrobial action of a mixed formulation of compound (1) and trifloxystrobin against Septoria tritici was tested.
Septoria tritici was punched out from the vicinity of a Septoria tritici colony that was cultured in advance on another plate culture medium free of the chemicals using a cork borer having a diameter of 4 mm, and inoculated on the PDA plate culture medium in which the chemicals were mixed.

Rhynchosporium secalis = test: Test Example 5: in vitro antimicrobial activity test, colony diameter on PDA plate with chemicals, 25° C., 14 days
Method: Additionally, in the above formula, R represents a fungal growth inhibition rate (%), dc represents the diameter of a colony on an untreated plate, and dt represents the diameter of a colony on a chemical-treated plate. […] Rhynchosporium secalis was punched out from the vicinity of a Rhynchosporium secalis colony that was cultured in advance on another plate culture medium free of the chemicals using a cork borer having a diameter of 4 mm, and inoculated on the PDA plate culture medium in which the chemicals were mixed. After culturing at 25° C. for 14 days, the diameter of the grown colony was measured.

[1] = tested on: Pseudocercosporella herpotrichoides; test: Test Example 3: in vitro antimicrobial activity test, colony diameter on PDA plate with chemicals, 20° C., seven days
Method: as §1, §2
Pseudocercosporella herpotrichoides was punched out from the vicinity of a Pseudocercosporella herpotrichoides colony using a cork borer having a diameter of 4 mm, and inoculated on the PDA plate culture medium in which the chemicals were mixed. After culturing at 20° C. for seven days, the diameter of the grown colony was measured.

Pyrenophora graminea [2] = test: Test Example 7: in vitro antimicrobial activity test (dimoxystrobin), same manner as Test Example 6; settings: Compound (1) 0 ppm
Method: as §1, §2
(§3) Pyrenophora graminea was punched out from the vicinity of a Pyrenophora graminea colony that was cultured in advance on another plate culture medium free of the chemicals using a cork borer having a diameter of 4 mm, and inoculated on the PDA plate culture medium in which the chemicals were mixed. After culturing at 25° C. for 3 days, the diameter of the grown colony was measured.

Pyrenophora graminea [3] = test: Test Example 6: in vitro antimicrobial activity test (picoxystrobin), colony diameter on PDA plate with chemicals, 25° C., 3 days; settings: Compound (1) 0 ppm
Method: as §1, §2, §3

[4] = Oculimacula yallundae, read-out: Fungal growth inhibition rate (%) Measured value
[5] = Colletotrichum gloeosporioides, read-out: Fungal growth inhibition rate (%) Measured value
[6] = Zymoseptoria tritici, read-out: Fungal growth inhibition rate (%) Measured value

Structure (SMILES): CO/C=C(/C(=O)OC)c1ccccc1Oc1cc(Oc2ccccc2C#N)ncn1 [Azoxystrobin, azoxystrobin]
- Fungal growth inhibition rate (%) Measured value (Gaeumannomyces graminis; Compound (1) 0 ppm, Azoxystrobin 0.010 ppm): 35%
- Fungal growth inhibition rate (%) Measured value (Gaeumannomyces graminis; Compound (1) 0 ppm, Azoxystrobin 2.5 ppm): 98%

Structure (SMILES): COC(=O)C1(C)CCC(Cc2ccc(Cl)cc2)C1(O)Cn1cncn1 (centres unmarked) [Compound (1)]
- Fungal growth inhibition rate (%) Measured value (Gaeumannomyces graminis; Compound (1) 0.078 ppm, Azoxystrobin 0 ppm): 0%
- Fungal growth inhibition rate (%) Measured value (Glomerella cingulata; Compound (1) 0.313 ppm, Pyraclostrobin 0 ppm): 45%
- Fungal growth inhibition rate (%) Measured value (Septoria tritici; Compound (1) 0.02 ppm, Trifloxystrobin 0 ppm): 9%
- Fungal growth inhibition rate (%) Measured value (Rhynchosporium secalis; Compound (1) 1.25 ppm, Fluoxastrobin 0 ppm): 87%
- Fungal growth inhibition rate (%) Measured value ([1]; Compound (1) 0.078 ppm, Kresoxim-methyl 0 ppm): 7%

Structure (SMILES): CNC(=O)/C(=N/OC)c1ccccc1COc1cc(C)ccc1C [Dimoxystrobin, dimoxystrobin]
- Fungal growth inhibition rate (%) Measured value (Pyrenophora graminea [2]; Dimoxystrobin 0.005 ppm): 28%
- Fungal growth inhibition rate (%) Measured value (Pyrenophora graminea [2]; Dimoxystrobin 0.02 ppm): 55%
- Fungal growth inhibition rate (%) Measured value (Pyrenophora graminea [2]; Dimoxystrobin 0.08 ppm): 71%

Structure (SMILES): CO/N=C(/C1=NOCCO1)c1ccccc1Oc1ncnc(Oc2ccccc2Cl)c1F [Fluoxastrobin, fluoxastrobin]
- inhibition at 0.005 ppm (Rhynchosporium secalis; Rhynchosporium secalis, read-out: Fungal growth inhibition rate (%) Measured value): 25%

Structure (SMILES): CO/N=C(/C(=O)OC)c1ccccc1COc1ccccc1C [Kresoxim-methyl, kresoxim-methyl]
- inhibition at 0.02 ppm [1, 4]: 21%
- inhibition at 0.08 ppm [1, 4]: 34%
- inhibition at 0.31 ppm [1, 4]: 60%
- inhibition at 1.25 ppm [1, 4]: 90%

Structure (SMILES): CO/C=C(/C(=O)OC)c1ccccc1COc1cccc(C(F)(F)F)n1 [Picoxystrobin, picoxystrobin]
- Fungal growth inhibition rate (%) Measured value (Pyrenophora graminea [3]; Picoxystrobin 0.005 ppm): 36%
- Fungal growth inhibition rate (%) Measured value (Pyrenophora graminea [3]; Picoxystrobin 0.02 ppm): 57%
- Fungal growth inhibition rate (%) Measured value (Pyrenophora graminea [3]; Picoxystrobin 0.08 ppm): 71%
- Fungal growth inhibition rate (%) Measured value (Pyrenophora graminea [3]; Picoxystrobin 0.31 ppm): 87%
- Fungal growth inhibition rate (%) Measured value (Pyrenophora graminea [3]; Picoxystrobin 1.25 ppm): 94%

Structure (SMILES): COC(=O)N(OC)c1ccccc1COc1ccn(-c2ccc(Cl)cc2)n1 [Pyraclostrobin, pyraclostrobin]
- inhibition at 0.1575 ppm (Glomerella cingulata; [5]): 73%
- inhibition at 0.63 ppm (Glomerella cingulata; [5]): 89%
- inhibition at 10 ppm (Glomerella cingulata; [5]): 100%

Structure (SMILES): CON=C(C(=O)OC)c1ccccc1CON=C(C)c1cccc(C(F)(F)F)c1 [Trifloxystrobin, trifloxystrobin]
- inhibition at 0.02 ppm (Septoria tritici; [6]): 82%
- inhibition at 0.08 ppm (Septoria tritici; [6]): 84%
- inhibition at 0.31 ppm (Septoria tritici; [6]): 86%
